Assay results reported in patent US20240067693A1, “POLYPEPTIDES AND USES THEREOF” (MEDIMMUNE LIMITED, priority 2020, published 2024).
Numbered stars: 1 amine (or outer) side, 2 acyl side, 3 side chain; on linkers, the order of the positions; unused ones are H or OH. Bridge positions count the residues as written; N and C are the ends. Square brackets hold non-standard residues; d marks the D form. Side chains are listed from the residue outwards. Peptide text beside a SMILES is read from it. * marks the point of attachment. C18 diacid = O=C(O)CCCCCCCCCCCCCCCCC(=O)*; γGlu = O=C(O)[C@H](CCC(=O)[*:2])N[*:1]; αMeF = C[C@](N)(Cc1ccccc1)C(=O)O; αMeS = C[C@](N)(CO)C(=O)O; Dab = NCC[C@H](N)C(=O)O; Aib = CC(C)(N)C(=O)O

Tests used:
[1] = biological target: T1, human amylin receptor (calcitonin receptor co-expressed with receptor activity modifying protein, RAMP3) (hAMYR3) (Homo sapiens, UniProt O60896+P30988); assay: cAMP production in 1321N1 cells with stable recombinant expression of human amylin receptor (hAMYR3); format: cell-based; conditions: for Ratio (selectivity hAMYR vs hCTR, ratio of EC50 values at the two receptors): EC50 hCTR / EC50 hAMYR3; for EC50: cAMP, 1321N1 cells, assay buffer with 0.1% BSA, read-out: EC50 (pM) hAMYR3
T1 construct: expressed in transfected cells
T1 sequence (P30988 25-474): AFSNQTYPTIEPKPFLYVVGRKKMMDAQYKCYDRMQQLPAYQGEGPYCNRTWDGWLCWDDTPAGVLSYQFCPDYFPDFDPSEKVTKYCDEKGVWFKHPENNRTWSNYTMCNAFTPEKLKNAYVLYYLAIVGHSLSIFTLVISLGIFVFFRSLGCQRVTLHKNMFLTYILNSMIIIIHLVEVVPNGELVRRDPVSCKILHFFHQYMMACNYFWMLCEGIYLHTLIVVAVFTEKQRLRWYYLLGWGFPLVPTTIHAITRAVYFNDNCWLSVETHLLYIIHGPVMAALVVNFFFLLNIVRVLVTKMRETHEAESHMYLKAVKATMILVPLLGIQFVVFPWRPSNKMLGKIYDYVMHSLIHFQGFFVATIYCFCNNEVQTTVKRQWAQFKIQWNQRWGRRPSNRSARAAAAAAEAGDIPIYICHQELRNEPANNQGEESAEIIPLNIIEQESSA
T1 sequence (O60896 24-148 partner): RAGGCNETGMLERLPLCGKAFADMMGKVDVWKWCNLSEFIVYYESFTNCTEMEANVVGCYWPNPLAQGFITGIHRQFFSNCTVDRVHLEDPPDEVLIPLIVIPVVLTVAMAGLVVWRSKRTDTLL
Description: (§1) The functional activities of lipidated pramlintide analogue peptides, such as cAMP production, were tested in 1321N1 cell line with stable recombinant expression of human calcitonin receptor (hCTR) or human amylin receptor (calcitonin receptor co-expressed with receptor activity modifying protein, RAMP3) (hAMYR3) or HEK cells with stable recombinant expression of rat calcitonin receptor (rat CTR) or rat amylin receptor (calcitonin receptor co-expressed with receptor activity modifying protein, RAMP3) (Rat AMYR3).
(§2) Cryopreserved cell stock was thawed rapidly in a water-bath, suspended in assay buffer (0.1% BSA (Sigma # A3059) in HBSS (Sigma # H8264) with 25 mM HEPES, pH 7.4 and containing 0.5 mM IB MX (Sigma# 17018)) and spun at 240×g for 5 minutes. Cells were re-suspended in assay buffer at a batch-dependent optimized concentration (e.g. hCTR cells at 0.125×10^5 cells/mL, hAMYR3 cells at 0.125×10^5 cells/mL, rat CTR cells at 1x10^5 cells/mL, rat AMYR3 at 2×10^5 cells/mL).
(§3) The test peptide stock was prepared in DMSO and diluted in assay buffer to reach stated concentrations and transferred in duplicates into a 384-black shallow well microtitre assay plate (Corning # 3676). Cells were added to the assay plate, incubated at room temperature for 30 minutes and the cAMP level measured using cAMP dynamic 2 HTRF kit (Cisbio, Cat # 62AM4PEJ), following the two step protocol as per manufacturer's recommendations. The plates were read on an Envision (Perkin Elmer) using excitation wavelength of 320 nm and emission wavelengths of 620nm & 665 nm.
(§4) Data was transformed to % Delta F as described in the manufacturer's guidelines and analyzed as percent activation of maximal amylin or calcitonin effect by 4-parameter logistic fit to determine EC50 values. The selectivity of a peptide to hAMYR vs hCTR is defined as a ratio of EC50 values at the two receptors.

[2] = biological target: T2, human calcitonin receptor (hCTR) (Homo sapiens, UniProt P30988); assay: cAMP production in 1321N1 cells with stable recombinant expression of human calcitonin receptor (hCTR); format: cell-based; conditions: cAMP, 1321N1 cells, assay buffer with 0.1% BSA; read-out: EC50 (pM) hCTR
T2 construct: expressed in transfected cells
T2 sequence (P30988 25-474): T1 sequence (P30988 25-474)
Description: as §1, §2, §3, §4

SMILES | Ratio (selectivity hAMYR vs hCTR, ratio of EC50 values at the two receptors) [1] | EC50 [1] [pM] | EC50 [2] [pM]
CC[C@H](C)[C@H](NC(=O)[C@@H]1CCCN1C(=O)CNC(=O)[C@H](Cc1ccccc1)NC(=O)[C@H](CC(N)=O)NC(=O)[C@H](CC(N)=O)NC(=O)[C@](C)(CO)NC(=O)[C@H](CO)NC(=O)[C@H](Cc1c[nH]cn1)NC(=O)[C@@H](NC(=O)[C@H](CC(C)C)NC(=O)[C@H](Cc1ccccc1)NC(=O)[C@H](CC(N)=O)NC(=O)[C@H](C)NC(=O)[C@H](CC(C)C)NC(=O)[C@H](CCCNC(=N)N)NC(=O)[C@H](CCC(N)=O)NC(=O)[C@@H](NC(=O)[C@H](C)NC(=O)[C@@H]1CSSC[C@H](NC(=O)[C@@H](N)CCCCNC(=O)CC[C@H](NC(=O)CC[C@H](NC(=O)CCCCCCCCCCCCCCCCC(=O)O)C(=O)O)C(=O)O)C(=O)N[C@@H](CC(N)=O)C(=O)N[C@@H]([C@@H](C)O)C(=O)N[C@@H](C)C(=O)N[C@@H]([C@@H](C)O)C(=O)N1)[C@@H](C)O)C(C)C)C(=O)N[C@@H](CC(C)C)C(=O)N1CCC[C@H]1C(=O)N1CCC[C@H]1C(=O)N[C@H](C(=O)N[C@@H](CC(N)=O)C(=O)N[C@H](C(=O)NCC(=O)N[C@@H](CO)C(=O)N[C@@H](CC(N)=O)C(=O)N[C@H](C(=O)N[C@@H](Cc1ccc(O)cc1)C(N)=O)[C@@H](C)O)C(C)C)[C@@H](C)O [Peptide 22, K(γE-γE-C18diacid)[CNTATC]ATQRLANFLVHS(αMeSer)NNFGPILPPTNVGSNTY-amide] (H-K([γGlu-γGlu-C18 diacid])CNTATCATQRLANFLVHS[αMeS]NNFGPILPPTNVGSNTY-NH2; disulfide 2-7; N-terminus assumed) | 40 | 162 | 6540
CC[C@H](C)[C@H](NC(=O)[C@@H]1CCCN1C(=O)CNC(=O)[C@](C)(Cc1ccccc1)NC(=O)[C@H](CC(N)=O)NC(=O)[C@H](CC(N)=O)NC(=O)[C@H](CO)NC(=O)[C@H](CO)NC(=O)[C@H](Cc1c[nH]cn1)NC(=O)C(C)(C)NC(=O)[C@H](CC(C)C)NC(=O)[C@H](Cc1ccccc1)NC(=O)[C@H](CC(N)=O)NC(=O)[C@H](C)NC(=O)[C@H](CC(C)C)NC(=O)[C@H](CCCNC(=N)N)NC(=O)[C@H](CCC(N)=O)NC(=O)[C@@H](NC(=O)[C@H](C)NC(=O)[C@@H]1CSSC[C@H](NC(=O)[C@@H](N)CCCCNC(=O)CC[C@H](NC(=O)CC[C@H](NC(=O)CCCCCCCCCCCCCCCCC(=O)O)C(=O)O)C(=O)O)C(=O)N[C@@H](CC(N)=O)C(=O)N[C@@H]([C@@H](C)O)C(=O)N[C@@H](C)C(=O)N[C@@H]([C@@H](C)O)C(=O)N1)[C@@H](C)O)C(=O)N[C@@H](CC(C)C)C(=O)N1CCC[C@H]1C(=O)N1CCC[C@H]1C(=O)N[C@H](C(=O)N[C@@H](CC(N)=O)C(=O)N[C@H](C(=O)NCC(=O)N[C@@H](CO)C(=O)N[C@@H](CC(N)=O)C(=O)N[C@H](C(=O)N[C@@H](Cc1ccc(O)cc1)C(N)=O)[C@@H](C)O)C(C)C)[C@@H](C)O [Peptide 26, K(γE-γE-C18diacid)[CNTATC]ATQRLANFL(Aib)HSSNN(αMePhe)GPILPPTNVGSNTY-amide] (H-K([γGlu-γGlu-C18 diacid])CNTATCATQRLANFL[Aib]HSSNN[αMeF]GPILPPTNVGSNTY-NH2; disulfide 2-7) | 7 | 409 | 2800

More lines, now with the values ahead:

Ratio (selectivity hAMYR vs hCTR, ratio of EC50 values at the two receptors) [1] | EC50 [1] [pM] | EC50 [2] [pM] | SMILES
2 | 238 | 589 | CC[C@H](C)[C@H](NC(=O)[C@@H]1CCCN1C(=O)CNC(=O)[C@](C)(Cc1ccccc1)NC(=O)[C@H](CC(N)=O)NC(=O)[C@H](CC(N)=O)NC(=O)[C@H](CO)NC(=O)[C@H](CO)NC(=O)[C@H](Cc1c[nH]cn1)NC(=O)[C@@H](NC(=O)[C@H](CC(C)C)NC(=O)[C@H](Cc1ccccc1)NC(=O)[C@H](CC(N)=O)NC(=O)[C@H](C)NC(=O)[C@H](CC(C)C)NC(=O)[C@H](CCCNC(=N)N)NC(=O)[C@H](CCC(N)=O)NC(=O)[C@@H](NC(=O)[C@H](C)NC(=O)[C@@H]1CSSC[C@H](NC(=O)[C@@H](N)CCCCNC(=O)CC[C@H](NC(=O)CC[C@H](NC(=O)CCCCCCCCCCCCCCCCC(=O)O)C(=O)O)C(=O)O)C(=O)N[C@@H](CC(N)=O)C(=O)N[C@@H]([C@@H](C)O)C(=O)N[C@@H](C)C(=O)N[C@@H]([C@@H](C)O)C(=O)N1)[C@@H](C)O)C(C)C)C(=O)N[C@@H](CC(C)C)C(=O)N1CCC[C@H]1C(=O)N1CCC[C@H]1C(=O)N[C@H](C(=O)N[C@@H](CCC(=O)O)C(=O)N[C@H](C(=O)NCC(=O)N[C@@H](CO)C(=O)N[C@@H](CC(N)=O)C(=O)N[C@H](C(=O)N[C@@H](Cc1ccc(O)cc1)C(N)=O)[C@@H](C)O)C(C)C)[C@@H](C)O [Peptide 23, K(γE-γE-C18diacid)[CNTATC]ATQRLANFLVHSSNN(αMePhe)GPILPPTEVGSNTY-amide] (H-K([γGlu-γGlu-C18 diacid])CNTATCATQRLANFLVHSSNN[αMeF]GPILPPTEVGSNTY-NH2; disulfide 2-7)
5 | 134 | 731 | CC[C@H](C)[C@@H]1NC(=O)[C@H](CC(N)=O)NC(=O)[C@@H](NC(=O)[C@@H](N)CCCCNC(=O)CC[C@H](NC(=O)CC[C@H](NC(=O)CCCCCCCCCCCCCCCCC(=O)O)C(=O)O)C(=O)O)CSSC[C@@H](C(=O)N[C@@H](C)C(=O)N[C@H](C(=O)N[C@@H](CCC(N)=O)C(=O)N[C@@H](CCCNC(=N)N)C(=O)N[C@@H](CC(C)C)C(=O)N[C@@H](C)C(=O)N[C@@H](CC(N)=O)C(=O)N[C@@H](Cc2ccccc2)C(=O)N[C@@H](CC(C)C)C(=O)N[C@H](C(=O)N[C@@H](Cc2c[nH]cn2)C(=O)N[C@@H](CO)C(=O)N[C@@H](CO)C(=O)N[C@@H](CCN)C(=O)N[C@@H](CC(N)=O)C(=O)N[C@@H](Cc2ccccc2)C(=O)NCC(=O)N2CCC[C@H]2C(=O)N[C@H](C(=O)N[C@@H](CC(C)C)C(=O)N2CCC[C@H]2C(=O)N2CCC[C@H]2C(=O)N[C@H](C(=O)N[C@@H](CC(N)=O)C(=O)N[C@H](C(=O)NCC(=O)N[C@@H](CO)C(=O)N[C@@H](CCCNC(=N)N)C(=O)N[C@H](C(=O)N[C@@H](Cc2ccc(O)cc2)C(N)=O)[C@@H](C)O)C(C)C)[C@@H](C)O)[C@@H](C)CC)C(C)C)[C@@H](C)O)NC(=O)[C@H]([C@@H](C)O)NC(=O)[C@H](C)NC1=O [Peptide 27, K(γE-γE-C18diacid)[CNIATC]ATQRLANFLVHSS(Dab)NFGPILPPTNVGSRTY-amide] (H-K([γGlu-γGlu-C18 diacid])CNIATCATQRLANFLVHSS[Dab]NFGPILPPTNVGSRTY-NH2; disulfide 2-7; N-terminus assumed)
34 | 243 | 8210 | CC[C@H](C)[C@H](NC(=O)[C@@H]1CCCN1C(=O)CNC(=O)[C@H](Cc1ccccc1)NC(=O)[C@H](CC(N)=O)NC(=O)[C@H](CCN)NC(=O)[C@H](CO)NC(=O)[C@H](CO)NC(=O)[C@H](Cc1c[nH]cn1)NC(=O)[C@@H](NC(=O)[C@H](CC(C)C)NC(=O)[C@H](Cc1ccccc1)NC(=O)[C@H](CC(N)=O)NC(=O)[C@H](C)NC(=O)[C@H](CC(C)C)NC(=O)[C@H](CCCNC(=N)N)NC(=O)[C@H](CCC(N)=O)NC(=O)[C@@H](NC(=O)[C@H](C)NC(=O)[C@@H]1CSSC[C@H](NC(=O)[C@H](CCCCN)NC(=O)[C@@H](N)CCCCNC(=O)CC[C@H](NC(=O)CCCCCCCCCCCCCCCCC(=O)O)C(=O)O)C(=O)N[C@@H](CC(N)=O)C(=O)N[C@@H]([C@@H](C)O)C(=O)N[C@@H](C)C(=O)N[C@@H]([C@@H](C)O)C(=O)N1)[C@@H](C)O)C(C)C)C(=O)N[C@@H](CC(C)C)C(=O)N1CCC[C@H]1C(=O)N1CCC[C@H]1C(=O)N[C@H](C(=O)N[C@@H](CC(N)=O)C(=O)N[C@H](C(=O)NCC(=O)N[C@@H](CO)C(=O)N[C@@H](CC(N)=O)C(=O)N[C@H](C(=O)N[C@@H](Cc1ccc(O)cc1)C(N)=O)[C@@H](C)O)C(C)C)[C@@H](C)O [Peptide 29, K(γE-C18diacid)K[CNTATC]ATQRLANFLVHSS(Dab)NFGPILPPTNVGSNTY-amide] (H-K([γGlu-C18 diacid])KCNTATCATQRLANFLVHSS[Dab]NFGPILPPTNVGSNTY-NH2; disulfide 3-8; N-terminus assumed)
